assay: gradient 5% acetonitrile 3 min, to 50% in 2 min, to 85% in 15 min, held 3 min, 100 µL/min; conditions: column: Zorbax Extend-C18 2.1 x 50 mm; eluents: water / acetonitrile, 0.1% formic acid
Outline: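 Standards, all pure, were combined into mixtures of ~100 molecules and run at 100 μL/min on a Zorbax Extend-C18 column (2.1 × 50 mm, 1.8 μm) with water and acetonitrile, each containing 0.1% formic acid. A coupled quadrupole time-of-flight mass spectrometer operated in positive and negative ionization mode. Retention time values come from computationally picked adduct peaks, each inspected manually.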

| SMILES | RP-LC retention time |
| --- | --- |
| CNC(=O)[C@@H]1C[C@H](Oc2ccccc2)CN1C(=O)C1CC=CC1 | 710 s |
| CC(C)n1c(CCNC(=O)c2ccc(Cl)cc2)nc2cccnc21 | 704 s |
| O=C(c1nnc(-c2ccc(S(=O)(=O)N3CCCCC3)cc2)o1)N1CCC(Cc2ccccc2)CC1 | 1230 s |
| O=C(Nc1cccc(F)c1)N1CCC(N2CCN(Cc3cccc(F)c3)C(=O)C2=O)CC1 | 755 s |
| CC(C)NC(=O)c1ccc(OCC2CCCN(C(=O)c3ccc(N(C)C)cc3)C2)cc1 (configuration not stated) | 818 s |
| CC(C)c1cccc(Nc2nc3ccncc3n(C(C)C)c2=O)c1 | 707 s |
| Cc1cccc(CN2C[C@@H]3C(=O)N(Cc4ccc5c(c4)OCO5)C(=O)[C@@H]3C2)c1 | 734 s |
| Brc1cccc(-c2nc3cnccn3c2NC2CCCCC2)c1 | 1130 s |
| Cc1ccc(F)cc1S(=O)(=O)N1CCc2c(c(-c3nnc(-c4ccccc4)o3)nn2C)C1 | 846 s |
| Cc1cccc(NS(=O)(=O)c2ccc3nnc(C)n3c2)c1 | 687 s |
| CCn1c(CCNC(=O)c2ccc(OC)cc2C)nc2cccnc21 | 733 s |
| COC(=O)c1ccc(NC(=O)C2CCCN(S(=O)(=O)c3ccc(OC)c(C)c3)C2)cc1 (configuration not stated) | 1000 s |
| COc1ccc(CC(=O)N2CCN(c3ccc(-c4nc(C)cs4)cn3)CC2)cc1OC | 788 s |
| O=S(=O)(c1ccccc1F)N1CCC(c2noc(-c3ccc(F)cc3)n2)CC1 | 1110 s |
| COc1cccc(Cn2nc3n(C)c(=O)c4ccc(C(=O)NC5CCCC5)cc4n3c2=O)c1 | 851 s |
| O=C(CN1CCC(c2nc(-c3ccc(F)cc3)no2)CC1)Nc1ccc2c(c1)OCO2 | 720 s |
| O=C(NCCN1CCOCC1)c1ccc2ccnc(N3CCN(C(=O)c4ccco4)CC3)c2c1 | 567 s |
| CCNS(=O)(=O)c1ccc(-c2c(C)noc2C)cc1 | 762 s |
| COc1ccc(NC(=O)c2cnc3c(c2)c(=O)n(C)c(=O)n3-c2ccccc2)cc1 | 862 s |
| CCCCN(C)c1nc(-c2ccc([N+](=O)[O-])cc2)nc2ccccc12 | 883 s |
| COc1ccc(C(=O)/C(Br)=C/C(=O)O)cc1 | 744 s |
| Cc1ccc(C)c(C(=O)NCCc2nc3cccnc3n2C(C)C)c1 | 705 s |

| SMILES | RP-LC retention time |
| --- | --- |
| O=C(c1ccco1)N1CCc2c([nH]c3ccccc23)C1c1ccc(F)cc1 (configuration not stated) | 1080 s |
| CC(C)C(NC(=O)Nc1ccc2c(c1)OCCO2)C(=O)N1CCc2ccccc21 (configuration not stated) | 609 s |
| CSc1ccc(Cl)c(C(=O)Nc2ccc3c(N4CCOCC4)ncnc3c2)c1 | 669 s |
| O=C(Cn1cccc(-c2nc(-c3ccc(Br)cc3)no2)c1=O)NC1CCCC1 | 896 s |
| COc1ccc(C(=O)N2CCC[C@H]2c2nc(-c3ccccc3)n[nH]2)cn1 | 659 s |
| Cn1nc(-c2nnc(-c3ccc(F)cc3)o2)c2c1CCN(S(=O)(=O)c1cccc(F)c1)C2 | 963 s |
| Cc1cc(C)cc(NC(=O)Cn2nc3c4cc(F)ccc4ncn3c2=O)c1 | 752 s |
| COc1cccc(Oc2nccnc2N2CCC(C(=O)N3CCN(c4ccccn4)CC3)CC2)c1 | 658 s |
| Cc1cc(C)cc(Nc2nc(C)cc(=O)n2CC(=O)NC(C)CCc2ccccc2)c1 (configuration not stated) | 1030 s |
| O=C(CN1CCN(C(=O)Nc2ccc(Cl)cc2)CC1=O)NCc1ccco1 | 685 s |
| Fc1ccc(-c2nc(-c3ccc4c(c3)ncn4CCN3CCOCC3)no2)cc1 | 632 s |
| CCC(C(=O)N1CCOc2ccc(C)cc21)n1cnc2nc3c(cc2c1=O)CCCC3 (configuration not stated) | 950 s |
| CCOC(=O)c1cnc2nc(C)ccc2c1Nc1cc(F)ccc1F | 726 s |
| COc1ccc(N(Cc2nc3nc(C)c(Cl)c(C)n3n2)C(=O)c2ccco2)cc1 | 824 s |
| Cc1onc(-c2ccccn2)c1C(=O)NCCc1c[nH]c2ccc(Cl)cc12 | 1000 s |
| NC(=O)C1CCN(C(=O)Cn2c(=O)n(C3CCCCC3)c(=O)c3cc(Br)ccc32)CC1 | 771 s |
| O=C(c1ccccc1F)N1N=C(c2cccs2)CC1c1ccc2nccnc2c1 (configuration not stated) | 791 s |
| CCOC(=O)c1ccc(Nc2c(C(=O)N3CCC(C)CC3)cnc3nc(C)ccc23)cc1 | 675 s |
| CCN1C(=O)c2cc(S(=O)(=O)Nc3ccc(C)c(C)c3)ccc2Oc2cccnc21 | 986 s |
| O=C(Nc1ccc(-c2nc3cccnc3s2)cc1)c1ccccc1Cl | 893 s |
| Cc1cc(C)cc(NC(=O)N2CCC(N3CCN(Cc4ccc(F)cc4)C(=O)C3=O)CC2)c1 | 788 s |
| COc1ccc(C(=O)NC(C)C(=O)Nc2nc3ccccc3[nH]2)cc1 (configuration not stated) | 648 s |

| SMILES | RP-LC retention time |
| --- | --- |
| O=C(c1cn(-c2cc(-c3nc(C4CC4)no3)ccn2)cn1)N1CCCCCC1 | 883 s |
| CCc1noc(-c2cccnc2N2CCCN(Cc3cccc(F)c3)CC2)n1 | 660 s |
| COc1cccc(-c2nnc(Cc3nc(-c4ccccc4F)no3)o2)c1 | 1020 s |
| Cc1nc(N2CCCC2)c2c(C(=O)NCCCc3ccccc3)c(C)oc2n1 | 754 s |
| O=C(NCc1ccccc1Cl)C1CCCN(C(=O)NC2CC2)C1 (configuration not stated) | 652 s |
| COC(=O)CN1C(=O)C2CCCN2C(=O)c2ccccc21 (configuration not stated) | 634 s |
| Cc1ccsc1C(=O)Nc1ccc2c(N3CCCCC3)ncnc2c1 | 686 s |
| Cc1ncc2c(n1)C[C@@H]1CC[C@H]2N1C(=O)Nc1ccc2c(c1)OCCO2 | 630 s |
| CC(C)N1CC2(CCN(S(=O)(=O)c3ccccc3)CC2)C1c1ccccc1 (configuration not stated) | 690 s |
| Cn1nc(N2CCC(NC(=O)Cc3c[nH]c4ccccc34)C2)ccc1=O (configuration not stated) | 632 s |
| CCn1c(=O)c2cc(C(=O)NCc3cn[nH]c3C)nn2c2ccccc21 | 781 s |
| Cc1nn(CC(=O)N2CCN(c3ccccn3)CC2)c(=O)c2cccn12 | 568 s |
| O=C(NCCC1=CCCCC1)C(=O)Nc1cccc([N+](=O)[O-])c1 | 1030 s |
| CCOc1ccccc1NC(=O)N1CCN(c2cc(C)nc(N3CCOCC3)n2)CC1 | 631 s |
| COc1cc(Cl)ccc1C(=O)N1CCC(OC2CCN(C)CC2)CC1 | 606 s |
| O=C(c1cccs1)N1CCN(c2cc(Cl)ccc2Cl)CC1 | 1020 s |
| COc1ccc(NC(=O)N2CCCC2c2nc(-c3ccccc3OC)no2)c(C)c1 (configuration not stated) | 809 s |
| Cc1c(-c2noc(-c3ccccc3)n2)nnn1-c1ccc(F)cc1 | 1070 s |
| O=C(NCC1CCCO1)C(=O)Nc1ccc(OC(F)(F)F)cc1 (configuration not stated) | 834 s |
| COCCNC(=O)c1ccc2c(c1)CCCN2S(=O)(=O)c1ccccc1 | 767 s |
| Cc1cnc(C(=O)N2CCCn3ccnc3C2C2CCCC2)cn1 (configuration not stated) | 582 s |
| CCc1ccc(C(=O)Nc2ccc3c(c2)Sc2ncccc2C(=O)N3C)cc1 | 818 s |

| SMILES | RP-LC retention time |
| --- | --- |
| CCn1c(SCC(=O)N2CCCC2)nnc1-c1ccc2c(c1)OCCCO2 | 666 s |
| O=C(Nc1ccccc1F)N1CC(Oc2ccc(-c3nc(-c4ccccc4)no3)cc2)C1 | 1130 s |
| Cc1noc(C)c1S(=O)(=O)N1CCCCC1c1nncn1C (configuration not stated) | 647 s |
| CCc1ccc(N2CC(c3noc(-c4ccc(Cl)cc4)n3)CC2=O)cc1 (configuration not stated) | 1200 s |
| Cc1ccc(NC(=O)CSc2nccc(N3CCN(c4cc(C)ccc4C)CC3)n2)c(F)c1 | 1110 s |
| Cc1ccccc1Cn1c2ccccc2c2cnn(CC(=O)NCc3ccco3)c(=O)c21 | 975 s |
| Cn1cc(CN2CCC(C(=O)NC3CCN(Cc4ccccc4)CC3)CC2)c2cc(Cl)ccc21 | 593 s |
| Cc1nnc(-c2cccnc2N2CCN(C(=O)CC3CCCC3)CC2)o1 | 728 s |
| Cc1nn(C(C)C(=O)Nc2cccc(F)c2)c(=O)c2c(-n3cccc3)n(-c3ccccc3)nc12 (configuration not stated) | 1120 s |
| Cc1ccc(NS(=O)(=O)c2cc(-c3[nH]ncc3C(=O)N3CCCCC3)oc2C)c(C)c1 | 791 s |
| COC(=O)c1ccc(NC(=O)c2sc(-c3cn(C(C)C)c4ncccc34)nc2C)cc1 | 1090 s |
| COc1ccc(NC(=O)C2CCN(S(=O)(=O)c3ccc4c(c3)NC(=O)C(C)O4)CC2)cc1 (configuration not stated) | 783 s |
| Cn1nc(-c2nnc(-c3ccccc3)o2)c2c1CCN(S(=O)(=O)c1ccc3c(c1)CCC3)C2 | 688 s |
| COc1cccc(CNC(=O)c2nc3cccnc3n(CC(C)C)c2=O)c1 | 850 s |
| CCN1C=C(C(=O)OCc2cccc(Cl)c2)C(C)=NS1(=O)=O | 1050 s |
| O=C(Nc1ccc2c(c1)OCCO2)c1coc(NC(=O)C2CC2)n1 | 643 s |
| COCCN1CCn2cc(S(=O)(=O)Nc3ccc(C)cc3C)cc2C1=O | 730 s |
| COc1ccc(-c2noc(CN3C(=O)COc4ccc(C(C)(C)C)cc43)n2)cc1OC | 1120 s |
| COc1cccc(CC(=O)N2CCC(Nc3ncnc4c3CCC4)C2)c1 (configuration not stated) | 604 s |
| Cn1cc(CCN2CCC(C(=O)NCc3ccc(F)cc3)CC2)c2cccnc21 | 595 s |
| Cc1cc(=O)n(CC(=O)Nc2cccc(C(F)(F)F)c2)c(N2CCN(c3ccccc3)CC2)n1 | 969 s |

Source: the METLIN SMRT retention time set (Domingo-Almenara et al. 2019)
